Two molecules from ChEMBL document CHEMBL2176937, “Small-molecule structure correctors target abnormal protein structure and function: structure corrector rescue of apolipoprotein E4-associated neuropathology” (J Med Chem, 2012) can be followed below.

Bounds are passed on as bounds.

The nature of assay [1]: Inhibition of apoE4 expressed in Neuro2a cells assessed as increase in COX1 level by Western blot assay. Format: cell-based. As to conditions: N2a. For orientation: Immunoblotting shows a protein as a band on a membrane.
A short description of assay [2]: Inhibition of apoE4 expressed in rat PC12 cells assessed as reversal of mitochondrial impairment. As to conditions: pc-12. Format: cell-based.

As usually defined, the IC50 is the point on the concentration scale where inhibition reaches its midpoint. Take `Cn1nc(CC(=O)Nc2ccc(CN3CCN(C(=O)OC(C)(C)C)CC3)cc2)c2ccccc2c1=O`: the half-maximal inhibitory concentration (IC50) in assay [1] worked out at 0.041 µM.

As a reminder, the EC50 is the concentration at which the effect is half-maximal. Consider `Cn1nc(CC(=O)Nc2cccc(-c3ccc(C#N)cc3)c2)c2ccccc2c1=O`, for which the 50% effective concentration (EC50) in assay [2] is under 0.001 µM.
